Data on six compounds can be found in patent US20260225997A1, “IONIZABLE AMINE LIPIDS” (Intellia Therapeutics, Inc., priority 2018, published 2026).

In data set [1] the test system is TTR. Put plainly: Transthyretin (TTR) ELISA analysis of mouse serum after LNP dosing. The data set is classed as in vivo. To be noted: for response vs control in vivo at 0.1 mg/kg: Mus musculus, iv, read-out: Serum TTR % TSS. As to the method: (§1) CD-1 female mice, ranging from 6-10 weeks of age were used in each study. Animals were weighed and grouped according to body weight for preparing dosing solutions based on group average weight. LNPs were dosed via the lateral tail vein in a volume of 0.2 mL per animal (approximately 10 mL per kilogram body weight). The animals were periodically observed post dose for adverse effects for at least 24 hours post dose. Animals were euthanized at 6 or 7 days by exsanguination via cardiac puncture under isoflurane anesthesia. Blood was collected into serum separator tubes or into tubes containing buffered sodium citrate for plasma as described herein. For studies involving in vivo editing, liver tissue was collected from each animal for DNA extraction and analysis.
CD-1 female mice were dosed i.v. at 0.1 mpk or 0.3 mpk. […] For animals dosed with G282 targeting TTR, blood and the liver were collected and serum TTR and editing were measured. For animals dosed with G650 targeting B2M, liver was collected and editing was measured.
Blood was collected and the serum was isolated as indicated. The total mouse TTR serum levels were determined using a Mouse Prealbumin (Transthyretin) ELISA Kit (Aviva Systems Biology, Cat. OKIA00111). Briefly, sera were serial diluted with kit sample diluent to a final dilution of 10,000-fold for 0.1 mpk dose and 2,500-fold for 0.3 mpk. This diluted sample was then added to the ELISA plates and the assay was then carried out according to directions.

Data set [2] deals with TTR. Put plainly: TTR editing in mouse liver by NGS after i.v. LNP delivery of Cas9 mRNA and sgRNA. The data set is classed as in vivo. Particulars: CD-1 female mice. The procedure:
Preparations of various LNP compositions were prepared with amine lipids. In assays for percent liver editing in mice, Cas9 mRNA and chemically modified sgRNA were formulated in LNPs, at either a 1:1 w/w ratio or a 1:2 w/w ratio. LNPs are formulated with a composition of a given ionizable lipid (e.g. an amine lipid), DSPC, cholesterol, and PEG-2k-DMG, with a 6.0 N:P ratio.
as §1
Cohorts of mice were measured for liver editing by Next-Generation Sequencing (NGS).
In brief, to quantitatively determine the efficiency of editing at the target location in the genome, genomic DNA was isolated and deep sequencing was utilized to identify the presence of insertions and deletions introduced by gene editing.
PCR primers were designed around the target site (e.g., B2M), and the genomic area of interest was amplified. Additional PCR was performed according to the manufacturer's protocols (Illumina) to add the necessary chemistry for sequencing. The amplicons were sequenced on an Illumina MiSeq instrument. The reads were aligned to the […] after eliminating those having low quality scores. The resulting files containing the reads were mapped to the reference genome (BAM files), where reads that overlapped the target region of interest were selected and the number of wild type reads versus the number of reads which contain an insertion, substitution, or deletion was calculated.
The editing percentage (e.g., the “editing efficiency” or “percent editing”) is defined as the total number of sequence reads with insertions or deletions over the total number of sequence reads, including wild type.
CD-1 female mice were dosed i.v. at 0.1 mpk or 0.3 mpk. At 6 days post-dose, animals were sacrificed. For animals dosed with G282 targeting TTR, blood and the liver were collected and serum TTR and editing were measured. For animals dosed with G650 targeting B2M, liver was collected and editing was measured.

A short description of data set [3]: pKa measurement of unformulated amine lipid (fluorescence, method of Jayaraman et al.). In kind it is physicochemical. Particulars: 100 μM in 0.1 M phosphate buffer pH 4.5-9.0. The procedure: The pKa of each amine lipid was determined according to the method in Jayaraman, et al. (Angewandte Chemie, 2012) with the following adaptations. […] Lipid was diluted to 100 μM in 0.1 M phosphate buffer (Boston Bioproducts) where the pH ranged from 4.5-9.0. Fluorescence intensity was measured using excitation and emission wavelengths of 321 nm and 448 nm.

Data set [4] can be described thus: RNA encapsulation efficiency of LNP (Ribogreen fluorescence assay). The data set is classed as physicochemical. To be noted: N:P 6.0. As to the method: A fluorescence-based assay (Ribogreen®, ThermoFisher Scientific) is used to determine total RNA concentration and free RNA. Encapsulation efficiency is calculated as (Total RNA−Free RNA)/Total RNA. LNP samples are diluted appropriately with 1× TE buffer containing 0.2% Triton-X 100 to determine total RNA or 1× TE buffer to determine free RNA. Standard curves are prepared by utilizing the starting RNA solution used to make the compositions and diluted in 1× TE buffer+/−0.2% Triton-X 100. Diluted RiboGreen® dye (according to the manufacturer's instructions) is then added to each of the standards and samples and allowed to incubate for approximately 10 minutes at room temperature, in the absence of light. A SpectraMax M5 Microplate Reader (Molecular Devices) is used to read the samples with excitation, auto cutoff and emission wavelengths set to 488 nm, 515 nm, and 525 nm respectively. Total RNA and free RNA are determined from the appropriate standard curves.
Encapsulation efficiency is calculated as (Total RNA−Free RNA)/Total RNA. The same procedure may be used for determining the encapsulation efficiency of a DNA-based cargo component. For single-strand DNA Oligreen Dye may be used, and for double-strand DNA, Picogreen Dye.

The nature of data set [5]: LNP average particle size and polydispersity by dynamic light scattering (Malvern Zetasizer). The data set is classed as physicochemical. The text has this: The LNPs have a size of about 1 to about 1,000 nm, about 10 to about 500 nm, about 20 to about 500 nm, in a sub-embodiment about 50 to about 400 nm, in a sub-embodiment about 50 to about 300 nm, in a sub-embodiment about 50 to about 200 nm, and in a sub-embodiment about 50 to about 150 nm, and in another sub-embodiment about 60 to about 120 nm. Preferably, the LNPs have a size from about 60 nm to about 100 nm. The average sizes (diameters) of the fully formed LNP, may be measured by dynamic light scattering on a Malvern Zetasizer. The LNP sample is diluted in phosphate buffered saline (PBS) so that the count rate is approximately 200-400 kcps. The data is presented as a weighted average of the intensity measure.
The LNPs disclosed herein have a size (e.g. Z-average diameter) of about 1 to about 250 nm. In some embodiments, the LNPs have a size of about 10 to about 200 nm. In further embodiments, the LNPs have a size of about 20 to about 150 nm. In some embodiments, the LNPs have a size of about 50 to about 150 nm. In some embodiments, the LNPs have a size of about 50 to about 100 nm. In some embodiments, the LNPs have a size of about 50 to about 120 nm. In some embodiments, the LNPs have a size of about 60 to about 100 nm. In some embodiments, the LNPs have a size of about 75 to about 150 nm. In some embodiments, the LNPs have a size of about 75 to about 120 nm. In some embodiments, the LNPs have a size of about 75 to about 100 nm. Unless indicated otherwise, all sizes referred to herein are the average sizes (diameters) of the fully formed nanoparticles, as measured by dynamic light scattering on a Malvern Zetasizer. The nanoparticle sample is diluted in phosphate buffered saline (PBS) so that the count rate is approximately 200-400 kcps. The data is presented as a weighted-average of the intensity measure (Z-average diameter).
Dynamic Light Scattering (“DLS”) is used to characterize the polydispersity index (“pdi”) and size of the LNPs of the present disclosure. DLS measures the scattering of light that results from subjecting a sample to a light source. PDI, as determined from DLS measurements, represents the distribution of particle size (around the mean particle size) in a population, with a perfectly uniform population having a PDI of zero.
LNP compositions are analyzed for average particle size, polydispersity index (pdi), total RNA content, encapsulation efficiency of RNA, and zeta potential. LNP compositions may be further characterized by lipid analysis, AF4-MALS, NTA, and/or cryo-EM. Average particle size and polydispersity are measured by dynamic light scattering (DLS) using a Malvern Zetasizer DLS instrument. LNP samples were diluted with PBS buffer prior to being measured by DLS. Z-average diameter which is an intensity-based measurement of average particle size was reported along with number average diameter and pdi. A Malvern Zetasizer instrument is also used to measure the zeta potential of the LNP. Samples are diluted 1:17 (50 μL into 800 μL) in 0.1×PBS, pH 7.4 prior to measurement.

Where [6] appears, read: Example 58: 0.1 mpk i.v., 6 days post-dose, G282 1:1.
Where [7] appears, read: 144 h, Example 58: 0.1 mpk i.v., 6 days post-dose, G282 1:1.
[8] abbreviates: Table 14, Example 58: LNP, G282 (TTR) 1:1 w/w.
Where [9] appears, read: Table 14, Example 58: LNP, G282 1:1.
Setting [10] is: Example 59: 0.1 mpk i.v., 7 days post-dose, G282 1:1.
[11] abbreviates: Table 16, Example 59: LNP, G282 1:1.
Setting [12] is: Example 60: 0.1 mpk i.v., 6 days post-dose, G502 1:2.
The mark [13] stands for this setting: 144 h, Example 60: 0.1 mpk i.v., 6 days post-dose, G502 1:2.
[14] abbreviates: Table 18, Example 60: LNP, G502 (TTR), sgRNA:Cas9 mRNA 1:2 w/w.
Where [15] appears, read: Table 18, Example 60: LNP, G502 1:2.

By pKa is commonly meant the negative logarithm of the acid dissociation constant. Lower therefore signals a stronger acid or weaker base.

Like-named read-outs stand apart in the source and are kept apart here.

As to `CCCCCCCCOC(CCCCCCCN(CCO)CCCCCCCCCC(=O)OCCCCCCC)OCCCCCCCC` [Compound 11, heptyl 10-((8,8-bis(octyloxy)octyl)(2-hydroxyethyl)amino)decanoate], the “Serum TTR” value with TTR [1] (setting [6]) worked out at 553 µg/mL. In the data set on TTR [1] (setting [7]), the response vs control in vivo at 0.1 mg/kg amounted to 56%. Besides, in the data set on TTR [2] (setting [6]), the “Editing Mean % Indel” value is reported as 29.4%. Also, in data set [3], the pKa is 6.35. For the same compound, the “Encapsulation (%)” value in data set [4] (setting [8]) is given as 86%. In data set [5] (setting [9]), the “Num Ave Size (nm)” value worked out at 54.58 nm, the PDI turned out to be 0.137 and the “Z-Ave Size (nm)” value is listed as 89.3 nm.

Regarding `CCCCCCCCCCCOC(=O)CCCCCN(CCO)CCCCCCCC(OCCCCCCCC)OCCCCCCCC` [Compound 13, undecyl 6-((8,8-bis(octyloxy)octyl)(2-hydroxyethyl)amino)hexanoate], the “Serum TTR” value with TTR [1] (setting [6]) came out at 703 µg/mL. For the same compound, the response vs control in vivo at 0.1 mg/kg with TTR [1] (setting [7]) is 71%. Further, the “Editing Mean % Indel” value in the data set on TTR [2] (setting [6]) turned out to be 22.6%. The compound further displayed a pKa in data set [3] of 6.35. Moreover, the “Encapsulation (%)” value in data set [4] (setting [8]) was 98%. In addition, in data set [5] (setting [9]), the “Num Ave Size (nm)” value stood at 63.34 nm, the PDI was 0.04 and the “Z-Ave Size (nm)” value was determined as 77.34 nm.

As to `CCCCCC/C=C\COC(=O)CCCCCCCN(CCO)CCCCCCCC(OCCCCCCCC)OCCCCCCCC` [Compound 16, (Z)-non-2-en-1-yl 8-((8,8-bis(octyloxy)octyl)(2-hydroxyethyl)amino)octanoate], in the data set with TTR [1] (setting [6]), the “Serum TTR” value was 516 µg/mL. Moreover, the response vs control in vivo at 0.1 mg/kg with TTR [1] (setting [7]) turned out to be 52%. For the same compound, the “Editing Mean % Indel” value in the data set on TTR [2] (setting [6]) stood at 35.2%. Also, in data set [3], the pKa amounted to 6.34. In data set [4] (setting [8]), the “Encapsulation (%)” value was determined as 78%. Besides, in data set [5] (setting [9]), the “Num Ave Size (nm)” value stood at 66.66 nm, the PDI is 0.132 and the “Z-Ave Size (nm)” value was found to be 109.5 nm.

Take `CCCCCCCCCOC(=O)CCCCCCCN(CCO)CCCCCCC(OCCCCCCC)OCCCCCCC` [Compound 20, nonyl 8-((7,7-bis(heptyloxy)heptyl)(2-hydroxyethyl)amino)octanoate]: in the data set on TTR [1] (setting [10]), the “Serum TTR” value came to 210 µg/mL. Moreover, in the data set with TTR [1] (168 h, Example 59: 0.1 mpk i.v., 7 days post-dose, G282 1:1), the response vs control in vivo at 0.1 mg/kg is 23%. For the same compound, the “Editing Mean % Indel” value in the data set on TTR [2] (setting [10]) is recorded as 35.0%. In addition, in data set [3], the pKa was 5.81. Moreover, the “Encapsulation (%)” value in data set [4] (Table 16, Example 59: LNP, G282 (TTR) 1:1 w/w) was determined as 83%. Besides, in data set [5] (setting [11]), the “Num Ave Size (nm)” value came to 58.65 nm, the PDI worked out at 0.102 and the “Z-Ave Size (nm)” value was 84.49 nm.

`CCCCCCCCCCC(=O)OCCCCCCN(CCO)CCCCCCCC(OCCCCCCCC)OCCCCCCCC` [Compound 22, 6-((8,8-bis(octyloxy)octyl)(2-hydroxyethyl)amino)hexyl undecanoate]: the “Serum TTR” value with TTR [1] (setting [12]) is 410 µg/mL. In the data set on TTR [1] (setting [13]), the response vs control in vivo at 0.1 mg/kg worked out at 29%. Further, in the data set on TTR [2] (setting [12]), the “Editing Mean % Indel” value was 45.6%. Also, the pKa in data set [3] turned out to be 6.18. Further, the “Encapsulation (%)” value in data set [4] (setting [14]) came out at 98%. Besides, in data set [5] (setting [15]), the “Num Ave Size (nm)” value was 66.68 nm, the PDI is 0.029 and the “Z-Ave Size (nm)” value is reported as 82.91 nm.

On to `CCCCCCCCOC(CCCCCCCN(CCO)CCCCCCCCOC(=O)CCCCCCCC)OCCCCCCCC` [Compound 23, 8-((8,8-bis(octyloxy)octyl)(2-hydroxyethyl)amino)octyl nonanoate], for which, in the data set on TTR [1] (setting [12]), the “Serum TTR” value amounted to 307 µg/mL. Also, in the data set with TTR [1] (setting [13]), the response vs control in vivo at 0.1 mg/kg was 22%. Besides, the “Editing Mean % Indel” value in the data set with TTR [2] (setting [12]) is 53.6%. Moreover, the pKa in data set [3] was determined as 6.04. Also, the “Encapsulation (%)” value in data set [4] (setting [14]) was 93%. In data set [5] (setting [15]), the “Num Ave Size (nm)” value is listed as 61.86 nm, the PDI came out at 0.054 and the “Z-Ave Size (nm)” value was 79.04 nm.
